Assay results from the supplement of paper PMC11208160.

Test: recombinant UMI read abundance after kanamycin selection (control-corrected) (log10(CPM+1)); higher = more efficient recombination; extreme values may be limits of the assay; sequences stand for … in AGTGCAGAGAAAATCGGCCAGTTTTCTCTGCCTGCAGTCCGCATGCCGTGGGACCCCTTGGGTTCTAACCTGTTGCCTAGATTTATGCAGCGGACTGCCTTTCTCCCAAAGTGATAAACCGG…AGGTTGGTTTCACT; site = the 11-nt donor
In short: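 Two replicates each of selected and unselected plating were used in this pooled Escherichia coli screen of donor and donor-binding-loop pairs for the IS621 bridge recombinase. Selection was with IPTG (0.07 mM) and kanamycin. Counts of recombinant UMIs, amplified across the donor–target junction, were converted to CPM, averaged, scaled by control-derived factors and reported as log10(CPM+1).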
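Note: IS621 bridge recombinase in Escherichia coli cells against a fixed T5 target plasmid.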

Point of comparison: “GAGCACGCATGGACCGGTTTTCCCGGTAATCCGTATTTGGG (site AAGCACGCTCC)”, “recombinant UMI read abundance (log10)” value 0.0191. Against it:
- GAATGGCCATGGACCGGTTTTCCCGGTAATCCGTATTTGCG (site GAATGGCCTTG) — within 0.2 log units, 0
- GAATGGCCATGGACCGGTTTTCCCGGTAATCCGTATTTGGA (site GAATGGCCTTA) — within 0.2 log units, 0
- GAATGGCCATGGACCGGTTTTCCCGGTAATCCGTATTTGGA (site GAATGGCCTTC) — within 0.2 log units, 0.00798
- GAATGGCCATGGACCGGTTTTCCCGGTAATCCGTATTTGGA (site GAATGGCCTTG) — within 0.2 log units, 0
- GAATGGCCATGGACCGGTTTTCCCGGTAATCCGTATTTGGA (site GAATGGCCTTT) — within 0.2 log units, 0.0129
- GAATGGCCATGGACCGGTTTTCCCGGTAATCCGTATTTGTA (site GAATGGCCTTA) — within 0.2 log units, 0.142
- GAATGGCCATGGACCGGTTTTCCCGGTAATCCGTATTTGTA (site GAATGGCCTTC) — within 0.2 log units, 0.0097
- GAATGGCCATGGACCGGTTTTCCCGGTAATCCGTATTTGTA (site GAATGGCCTTG) — within 0.2 log units, 0.00609
- GAATGGCCATGGACCGGTTTTCCCGGTAATCCGTATTTGTA (site GAATGGCCTTT) — within 0.2 log units, 0.0207
- GACAAACCATGGACCGGTTTTCCCGGTAATCCGTATTTGCT (site GACAAACCTAA) — within 0.2 log units, 0.00711
- GACAAACCATGGACCGGTTTTCCCGGTAATCCGTATTTGCT (site GACAAACCTAC) — within 0.2 log units, 0
- GACAAACCATGGACCGGTTTTCCCGGTAATCCGTATTTGCT (site GACAAACCTAG) — within 0.2 log units, 0
- GACAAACCATGGACCGGTTTTCCCGGTAATCCGTATTTGCT (site GACAAACCTAT) — within 0.2 log units, 0
- GACAAACCATGGACCGGTTTTCCCGGTAATCCGTATTTGGA (site GACAAACCTAC) — within 0.2 log units, 0.0269
- GACAAACCATGGACCGGTTTTCCCGGTAATCCGTATTTGGA (site GACAAACCTCC) — within 0.2 log units, 0
- GACAAACCATGGACCGGTTTTCCCGGTAATCCGTATTTGGA (site GACAAACCTGC) — within 0.2 log units, 0
- GACAAACCATGGACCGGTTTTCCCGGTAATCCGTATTTGGA (site GACAAACCTTC) — within 0.2 log units, 0
- GACAAACCATGGACCGGTTTTCCCGGTAATCCGTATTTGTT (site GACAAACCTAA) — within 0.2 log units, 0
- GACAAACCATGGACCGGTTTTCCCGGTAATCCGTATTTGTT (site GACAAACCTAC) — within 0.2 log units, 0
- GACAAACCATGGACCGGTTTTCCCGGTAATCCGTATTTGTT (site GACAAACCTAG) — within 0.2 log units, 0
- GACAAACCATGGACCGGTTTTCCCGGTAATCCGTATTTGTT (site GACAAACCTAT) — within 0.2 log units, 0
- GACACACCATGGACCGGTTTTCCCGGTAATCCGTATTTGGT (site GACAAACCTAC) — within 0.2 log units, 0
- GACACACCATGGACCGGTTTTCCCGGTAATCCGTATTTGGT (site GACACACCTAC) — within 0.2 log units, 0.00264
- GACACACCATGGACCGGTTTTCCCGGTAATCCGTATTTGGT (site GACAGACCTAC) — within 0.2 log units, 0.00253
- GACACACCATGGACCGGTTTTCCCGGTAATCCGTATTTGGT (site GACATACCTAC) — within 0.2 log units, 0.00315
- GACCACCCATGGACCGGTTTTCCCGGTAATCCGTATTTGTT (site GACCACCCTAA) — within 0.2 log units, 0.0158
- GACCACCCATGGACCGGTTTTCCCGGTAATCCGTATTTGTT (site GCCCACCCTAA) — within 0.2 log units, 0.0164
- GACCACCCATGGACCGGTTTTCCCGGTAATCCGTATTTGTT (site GGCCACCCTAA) — within 0.2 log units, 0.00672
- GACCACCCATGGACCGGTTTTCCCGGTAATCCGTATTTGTT (site GTCCACCCTAA) — within 0.2 log units, 0.0482
- GACCCATCATGGACCGGTTTTCCCGGTAATCCGTATTTGCC (site GACCCATCTGG) — higher, 1.64
- GACCCGACATGGACCGGTTTTCCCGGTAATCCGTATTTGGT (site GACCCGACTAC) — higher, 0.319
- GACCCTACATGGACCGGTTTTCCCGGTAATCCGTATTTGAA (site GACCCTACTTT) — higher, 0.324
- GACCGACCATGGACCGGTTTTCCCGGTAATCCGTATTTGCG (site GACCGACCTCG) — within 0.2 log units, 0.00858
- GACCGTCCATGGACCGGTTTTCCCGGTAATCCGTATTTGAC (site GACCGTCCTGT) — within 0.2 log units, 0
- GACCTATCATGGACCGGTTTTCCCGGTAATCCGTATTTGGA (site GACCTATCTTC) — higher, 0.981
- GACCTTCCATGGACCGGTTTTCCCGGTAATCCGTATTTGGT (site GACCTTCCTAC) — within 0.2 log units, 0.0209
- GACGCCGCATGGACCGGTTTTCCCGGTAATCCGTATTTGGT (site GACGCCGCTAC) — higher, 0.736
- GACGTAACATGGACCGGTTTTCCCGGTAATCCGTATTTGGC (site GACGTAACTGC) — higher, 1.72
- GACTAGCCATGGACCGGTTTTCCCGGTAATCCGTATTTGAA (site GACTAGCCTTT) — within 0.2 log units, 0.0158
- GACTCATCATGGACCGGTTTTCCCGGTAATCCGTATTTGCC (site GACTCATCTGG) — higher, 2.65
- GACTTGGCATGGACCGGTTTTCCCGGTAATCCGTATTTGAA (site GACTTGGCTTT) — higher, 0.93
- GAGAAGCCATGGACCGGTTTTCCCGGTAATCCGTATTTGGG (site GAGAAGCCTCC) — within 0.2 log units, 0.0155
- GAGAAGCCATGGACCGGTTTTCCCGGTAATCCGTATTTGGG (site GCGAAGCCTCC) — within 0.2 log units, 0.0122
- GAGAAGCCATGGACCGGTTTTCCCGGTAATCCGTATTTGGG (site GGGAAGCCTCC) — within 0.2 log units, 0
- GAGAAGCCATGGACCGGTTTTCCCGGTAATCCGTATTTGGG (site GTGAAGCCTCC) — within 0.2 log units, 0.0251
- GAGAATCCATGGACCGGTTTTCCCGGTAATCCGTATTTGTT (site CGGAATCCTAA) — within 0.2 log units, 0
- GAGAATCCATGGACCGGTTTTCCCGGTAATCCGTATTTGTT (site GAGAATCCTAA) — within 0.2 log units, 0
- GAGACGTCATGGACCGGTTTTCCCGGTAATCCGTATTTGCC (site GAGACGTCTGG) — higher, 2.04
- GAGCACGCATGGACCGGTTTTCCCGGTAATCCGTATTTGGG (site CAGCACGCTCC) — within 0.2 log units, 0.0292
- GAGCACGCATGGACCGGTTTTCCCGGTAATCCGTATTTGGG (site GAGCACGCTCC) — higher, 0.468
- GAGCACGCATGGACCGGTTTTCCCGGTAATCCGTATTTGGG (site TAGCACGCTCC) — higher, 0.517
- GAGCACTCATGGACCGGTTTTCCCGGTAATCCGTATTTGCG (site GAGCACTCTCG) — higher, 3.08
- GAGCCCACATGGACCGGTTTTCCCGGTAATCCGTATTTGAA (site GAGCCCACTTT) — higher, 1.73
- GAGCCCTCATGGACCGGTTTTCCCGGTAATCCGTATTTGTC (site GAGCCCTCTGA) — higher, 3.73
- GAGCCGACATGGACCGGTTTTCCCGGTAATCCGTATTTGGC (site GAGCCGACTGC) — within 0.2 log units, 0
- GAGCGCACATGGACCGGTTTTCCCGGTAATCCGTATTTGAT (site GAGCACACTAT) — higher, 1.07
- GAGCGCACATGGACCGGTTTTCCCGGTAATCCGTATTTGAT (site GAGCCCACTAT) — higher, 0.285
- GAGCGCACATGGACCGGTTTTCCCGGTAATCCGTATTTGAT (site GAGCGCACTAT) — higher, 1.73
- GAGCGCACATGGACCGGTTTTCCCGGTAATCCGTATTTGAT (site GAGCTCACTAT) — within 0.2 log units, 0.111
- GAGCGTCCATGGACCGGTTTTCCCGGTAATCCGTATTTGGG (site GAGCGTCCTCC) — within 0.2 log units, 0.0151
- GAGCGTTCATGGACCGGTTTTCCCGGTAATCCGTATTTGAA (site GAGCGTTCTTT) — higher, 2.83
- GAGCTCACATGGACCGGTTTTCCCGGTAATCCGTATTTGAT (site AAGCTCACTAT) — higher, 1.48
- GAGCTCACATGGACCGGTTTTCCCGGTAATCCGTATTTGAT (site CAGCTCACTAT) — higher, 0.963
- GAGCTCACATGGACCGGTTTTCCCGGTAATCCGTATTTGAT (site GAACTCACTAT) — higher, 0.9
- GAGCTCACATGGACCGGTTTTCCCGGTAATCCGTATTTGAT (site GACCTCACTAT) — higher, 0.584
- GAGCTCACATGGACCGGTTTTCCCGGTAATCCGTATTTGAT (site GAGATCACTAT) — within 0.2 log units, 0.00858
- GAGCTCACATGGACCGGTTTTCCCGGTAATCCGTATTTGAT (site GAGCACACTAT) — within 0.2 log units, 0.159
